# What was measured:
# mAb 10A1 = experiment: Isothermal titration calorimetry (ITC); format: binding, mouse
# Description: (§1) Figure 7 IM and thermodynamic analysis of glycan–mAb interactions and conformation of 1. (a) IM analysis. The heat maps represent on- and off-rates of mAb 2C5 to 1 (upper) and 3 (lower). (b) Thermograms acquired using 7 μM of mAb 2C5 and titrating 250 μM of 1 (left) or 3 mM of 3 (right) at 25 °C. Thermodynamic parameters were inferred by nonlinear least-square fits of the data points. (c) Summary of thermodynamic parameters for 1 and 3 interacting with mAbs 2C5 and 10A1. Bars represent mean±s.e.m. of two independent measurements. See Supplementary Fig. 6 for details. (d) One-dimensional proton NMR spectrum, and 2D zTOCSY and NOE spectroscopy (NOESY) NMR spectra of 1 showing the coupled protons to the anomeric protons of the five residues with numbering according to the structure shown in e. Blue circles mark cross-peaks that appear in the NOESY spectrum, whereas not showing a corresponding peak in the zTOCSY. These peaks were marked as inter-residue NOEs and labelled by residue number and proton name. […]
# (§2) Assuming that 1 had more interactions with the binding pockets, association with 1 would liberate more water molecules during complex formation than 3, thereby producing a more favourable entropy. To investigate this, thermodynamic parameters of mAb interactions with 1 and 3 were measured by ITC (Fig. 7b). […]
# mAb 2C5 = experiment: Isothermal titration calorimetry (ITC); format: binding, mouse
# Description: as §1, §2
structure (smiles),measurement,setting,value
C[C@@H]1O[C@@H](O[C@@H]2[C@@H](O)[C@H](O[C@H]3[C@H](O[C@@H]4O[C@@H](C)[C@H](O)[C@@H](O)[C@H]4O)[C@@H](O)[C@@H](O[C@H]4[C@@H](OCCCCCN)O[C@H](CO)[C@@H](O)[C@@H]4O)O[C@@H]3CO)O[C@H](CO)[C@H]2O)[C@H](O)[C@H](O)[C@H]1O [Compound 1],binding stoichiometry,mAb 10A1,2.6
same,binding stoichiometry,mAb 2C5,2.2
